Assay results: patent publication US8343488B2, “Diagnosis and treatment of human dormancy-related sequellae” (priority 2002, dated 2013)
Where two headings read alike, the source gives them in different places.

Columns and labels:
[1] = system: SLE, hypocomplementemic urticarial vasculitis; conditions: in vivo
[2] = cited from earlier work
Cpn infected macrophages = conditions: in vitro; cited from earlier work
recurrent bronchitis = assay: Case report: post-radiation recurrent bronchitis, antibacterial and antifungal therapy; format: in vivo, human; conditions: 500 mg QD #20; sputum positive for Klebsiella pneumoniae
Source text: It is generally known that ACC is not usually sensitive to chemotherapy or standard […] beam radiation. Higher energy radiation doses, such as neutron beam radiation, have shown some promise and referral to the Cancer Center for radiation treatment was arranged. Under the care of a physician, 16 sessions of neutron beam radiation were provided, followed by two sessions of endotracheal brachytherapy with proton radiation. The patient tolerated the radiation relatively well and returned to work. They were warned that chronic bronchitis might follow airway radiation from the loss of salivary cells and ciliary cells in the bronchus. The patient was screened for recurrence twice yearly with neck MRI and lung CT for 3 years and there was no evidence of recurrence. Post radiation year 4 brought recurrent bronchitis that would remit temporarily with antibiotic therapy.
Bronchoscopy was performed in January of 2004 to better determine the source of recurrent bronchitis. There was no evidence of cancer recurrence (FIG. 1). […] Brochoscopic washings were also sent for fungal cultures. The patient's IgG levels to Penicillium and Aspergillus were elevated, while the routine fungal cultures from bronchial washings were negative. […] The patient reported reduced fatigue, reduced inhalant allergies and a slight reduction in volume of sputum production. […]

Alzheimer's dementia = assay: Case report: DRS-2 in a patient with Alzheimer's dementia; conditions: human, in vivo
Protocol: A retired attorney with Alzheimer's dementia was tested with the DRS-2 and found to be in the first percentile overall before T3 treatment and in the 25th percentile after 3 months of slow-release T3 therapy. Some parameters such as “conceptualization” increase dramatically from the 4th to the 50th percentile and “attention” improved from the 35th to the 89th percentile. […] Serology for Chlamydia pneumoniae confirmed both IgG and IgA antibodies (consistent with chronic or relapsing infection) and treatment with antibiotic medication has provided additional improvement in cognitive function. Prophylactic treatment with low dose antifungal medication is a component of this treatment.

seropositive RA = assay: Case report: Chlamydia pneumoniae-related rheumatoid arthritis; format: in vivo, human; conditions: low dose
Protocol: A person with seropositive RA with joint swelling in their hands, elbows, knees and feet had negative serology for Chlamydia pneumoniae infection, along with elevated rT3/fT3 ratio and symptoms of fibromyalgia. They were initially treated with immunosuppressive medication including Prednisone 20 mg QD, Methotrexate 15 mg Qweek, antiTNF therapy with Humira injections twice monthly with limited response of less than ACR 20. […] After failing immunosuppressive therapy, a course of antibiotics designed to treat Chlamydia pneumoniae infection was prescribed. The antibiotic protocol is consistent with that recommended by Dr. Charles Stratton of Vanderbilt University for Chlamydia pneumoniae infection. […] This example illustrates the unreliable nature of currently available tests for Chlamydia pneumoniae infection and that patients with autoimmune disease with negative tests for Chlamydia pneumoniae infection are likely to have seronegative Chlamydia pneumoniae infection and respond to antibiotics. The use of T3 and antifungal medication in conjunction with antibiotic treatment has been beneficial.

[3] = system: stage-4 metastatic breast cancer; assay: Case report: antibiotic treatment of metastatic breast cancer; format: in vivo, human
Protocol: A person was diagnosed with stage-4 metastatic breast cancer with bone, pelvic and lung involvement. Treatment was initiated on Jan. 23, 2005 with Amoxicillin 500 mg 1 QD, Ketek 400 mg 1 QD, Flagyl 500 mg 2 BID. The dose of Flagyl was […] to 500 mg 1 BID on Feb. 1, 2005. By Feb. […] Hospitalization was necessary. […] The attending physicians presumed the cause of their condition was C. difficile related despite the negative tests and treated them with metronidazole. […] They were encouraged to discontinue antibiotic treatment and enter hospice for palliative care.

[4] = system: SLE, hypocomplementemic urticarial vasculitis; assay: Case report: treatment of systemic lupus erythematosus
pancreatic cancer = conditions: in vivo
[5] = system: stage 4-metastatic pancreatic cancer; assay: Case report: antibiotic treatment of pancreatic cancer (Example 3); format: in vivo, human; conditions: before antibiotic treatment
Protocol: Ascites had developed and paracentesis was performed 3 days prior to our first visit. They were having difficulty breathing and eating due to abdominal distention from ascites. […] Treatment with Amoxicillin 500 mg 1 QD, Ketek 500 mg 1 QD, and Flagyl 500 mg 1-2 QD was initiated. […] 4, 2005 and was tolerating the above protocol. Their lab results from Jan. […] 27, 2004:
The dose of Flagyl was increased to 1500 mg on Jan. […] 27, 2005.

SMILES: Cc1oncc1C(=O)Nc1ccc(C(F)(F)F)cc1 [Arava]
- tolerability of trial [1]: poorly tolerated

SMILES: O=C1O[C@H]([C@@H](O)CO)C(O)=C1O [Ascorbic acid]
- half life [2]: 30 min
- effect on Cpn in infected macrophages (Cpn infected macrophages): driving the organism into cryptic phase

SMILES: C[C@H]1COc2c(N3CCN(C)CC3)c(F)cc3c(=O)c(C(=O)O)cn1c23 [Levoquin]
- sputum production (recurrent bronchitis): reduced sputum production for three weeks

SMILES: N[C@@H](Cc1cc(I)c(Oc2ccc(O)c(I)c2)c(I)c1)C(=O)O [T3, triiodothyronine]
- effect of discontinuation of supplementation (Alzheimer's dementia): worsening of Alzheimer's symptoms
- fatigue and muscle pain (seropositive RA): fatigue and muscle pain improved

SMILES: CN[C@H](CC(C)C)C(=O)N[C@H]1C(=O)N[C@@H](CC(N)=O)C(=O)N[C@H]2C(=O)N[C@H]3C(=O)N[C@H](C(=O)N[C@H](C(=O)O)c4cc(O)cc(O)c4-c4cc3ccc4O)[C@H](O)c3ccc(c(Cl)c3)Oc3cc2cc(c3O[C@@H]2O[C@H](CO)[C@@H](O)[C@H](O)[C@H]2O[C@H]2C[C@](C)(N)[C@H](O)[C@H](C)O2)Oc2ccc(cc2Cl)[C@H]1O [Vancomycin]
- symptoms after switch ([3]; in hospital): symptoms gradually improved six days later

SMILES: CCN(CCO)CCCC(C)Nc1ccnc2cc(Cl)ccc12 (stereo not shown) [hydroxychloroquine]
- synovitis, hypocomplementemic urticarial rash and proteinuria ([4]; before October 2003): responding to treatment

SMILES: CN(Cc1cnc2nc(N)nc(N)c2n1)c1ccc(C(=O)N[C@@H](CCC(=O)O)C(=O)O)cc1 [methotrexate]
- tolerability of trial ([4]; additional immunosuppressive therapy): poorly tolerated

SMILES: Cc1ncc([N+](=O)[O-])n1CCO [metronidazole]
- adverse reaction ([3]; after one week of increased doses): severe depression, hypotension, hypothermia, emesis and diarrhea
- symptoms of presumed C. difficile diarrhea ([3]; in hospital, C. difficile tests negative): symptoms did not remit
- tolerability of increased dose (pancreatic cancer): well tolerated

SMILES: CCCCCOC(=O)Nc1nc(=O)n([C@@H]2O[C@H](C)[C@@H](O)[C@H]2O)cc1F [zoloda]
- outcome of chemotherapy [5]: failed
